PubChem BioAssay AID624167 (Sanford-Burnham Center for Chemical Genomics, 2012)
The source made the active and inactive calls.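 Rule for the calls: active = mean IC50 for reducing PEG3 promoter reporter signal at or below a set limit, with IC50 above the limit in both counter screens; inactive = the rest, including counter screen hits.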

What was measured:
PEG-3 [1] = biological target: PEG-3 (UniProt Q6IN02); assay: Peg3 promoter luciferase inhibitors, potency, dose response, cell-based, HeLa, CREF/GAPDH counter-screen panel (AID 624167); details: HeLa PEG-Prom luciferase reporter, overnight, CREF/GAPDH counter-screens, mean of runs
PEG-3 [2] = assay: as above; details: HeLa PEG-Prom luciferase reporter, overnight, CREF/GAPDH counter-screens
[3] = run 1, dose range 1, individual replicate IC50 per panel
[4] = run 2, dose range 1, individual replicate IC50 per panel

Chain of PEG-3 (UniProt Q6IN02) (Q6IN02 whole entry, looked up): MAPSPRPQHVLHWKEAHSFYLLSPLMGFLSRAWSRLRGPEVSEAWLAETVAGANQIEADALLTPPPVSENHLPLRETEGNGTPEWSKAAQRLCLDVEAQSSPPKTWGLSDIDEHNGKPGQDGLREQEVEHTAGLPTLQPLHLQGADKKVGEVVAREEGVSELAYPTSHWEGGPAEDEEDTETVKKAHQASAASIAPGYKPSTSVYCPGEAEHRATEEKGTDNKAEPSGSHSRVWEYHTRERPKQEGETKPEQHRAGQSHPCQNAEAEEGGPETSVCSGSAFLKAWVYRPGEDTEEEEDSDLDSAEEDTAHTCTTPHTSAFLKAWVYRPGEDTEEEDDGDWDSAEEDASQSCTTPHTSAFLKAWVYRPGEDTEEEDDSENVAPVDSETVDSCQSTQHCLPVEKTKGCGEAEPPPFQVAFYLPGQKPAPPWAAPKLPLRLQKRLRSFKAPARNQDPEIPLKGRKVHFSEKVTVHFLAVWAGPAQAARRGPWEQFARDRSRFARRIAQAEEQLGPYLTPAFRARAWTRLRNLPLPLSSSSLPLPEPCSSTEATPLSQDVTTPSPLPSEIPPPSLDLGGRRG

Compound	IC50 (PEG-3 [1])	IC50 (PEG-3 [2]; [3]) [µM]	IC50 (PEG-3 [2]; [4]) [µM]
O=C1/C(=C\c2cccc(O)c2O)SC(=S)N1Cc1ccccc1	inactive	14.1	30.1
CCc1nc(Sc2nnnn2-c2ccccc2)c2c3c(sc2n1)CCCC3	inactive	24.7	16.3
COc1ccc(CC(=O)N(Cc2ccccc2)c2ccccc2)cc1S(=O)(=O)N1CCOCC1	inactive	50.5	> 100
CN[C@H]1C[C@H]2c3[nH]c4ccc(-c5cccc(C)c5)cc4c3CCN2C[C@H]1[C@H](C)O	13.6 µM	18.8	8.37
COc1ccc(C(O)(CC(C)C)C(CN2CCOCC2)c2ccccc2)cc1 (stereo not given)	inactive	> 100	6.84
Cc1cc(C)c2sc(N(CCCN(C)C)C(=O)c3ccc(S(=O)(=O)N4CCCc5ccccc54)cc3)nc2c1	14.7 µM	20.7	8.73
CC(C)(C)OC(=O)CC(S(=O)(=O)c1ccccc1)S(=O)(=O)c1ccccc1	14.3 µM	21	7.58
CCN1CCc2c(sc(NC(=O)c3ccc(S(=O)(=O)N4CCCCCC4)cc3)c2C(=O)NC)C1	inactive	21.2	24.5
CCn1cc(CN2CCC(C(=O)Nc3cccc(-c4cccc(Cl)c4)c3)CC2)c(C)n1	14.5 µM	17.7	11.2
C[C@@H]1[C@H]2[C@@H]3CC[C@@H](C3)[C@H]2CN[C@H]1c1cn(Cc2ccccc2)c2ccccc12	inactive	39	42.7
Cc1ccc(C(=O)N(CCCN(C)C)c2nc3ccc(Cl)cc3s2)cc1C	18.4 µM	18.9	18
Cc1nc2c(OCc3ccc(OC(F)F)cc3)cccn2c1N(C)C(=O)CCC1CCCC1	inactive	28.9	23.5
Oc1[nH]c2ccc(Br)cc2c1N=NC(=S)Nc1ccc(F)cc1	19.3 µM	10.5	28.1
Cc1ccc2[nH]c(=O)c(C3C(C#N)=C(N)Oc4c3ccc3cccnc43)cc2c1 (stereo not given)	inactive	28.3	21.7
CN(C)CCCNc1ncnc2oc(-c3ccccc3)c(-c3ccccc3)c12	15.7 µM	16.6	14.8
CC(C)CN(C(=O)COC(=O)/C=C/c1ccc(Cl)c(Cl)c1)c1c(N)n(Cc2ccccc2)c(=O)[nH]c1=O	> 100 µM (inactive)	> 100	> 100
COc1ccccc1N1CCN(C(=O)c2sc3ncnc(N4CCN(c5ccccn5)CC4)c3c2C)CC1	inactive	27.6	19.7
O=C1NC(=O)N(Cc2ccc(F)cc2)C(=O)/C1=C\C=C\c1ccco1	14.9 µM	16.8	13
COc1ccc2c(c1)C=C([C@@H]1C[C@H]3CN(c4ccccc4)C(=O)[C@]34CCCN14)CO2	> 100 µM (inactive)	> 100	> 100
O=C(NC(c1ccc(F)cc1)c1ccc2ccccc2n1)C1CCN(Cc2cccc(C(F)(F)F)c2)CC1 (stereo not given)	12.1 µM	16.2	7.91
Cc1cc2c(c(/C=C/C(=O)c3ccccc3)c1)OC1(C=C2)Oc2ccccc2C(=O)N1C (stereo not given)	18 µM	20.4	15.5
COc1cc(-c2cc(C(=O)Nc3cc(S(=O)(=O)N4CCOCC4)ccc3C)c3ccccc3n2)cc(OC)c1OC	11.8 µM	11.1	12.5
COc1cc(OC)c(OC)cc1CCC(C)NCCC(c1ccccc1)c1ccccc1 (stereo not given)	18.4 µM	20.3	16.5
Cc1ccc(S(=O)(=O)c2nc(-c3ccccc3Cl)oc2N(C)C2CCN(C)CC2)cc1	inactive	32.7	20.6
CCn1cc(CN2CCC(C(=O)Nc3cccc(-c4cccc(Cl)c4)c3)CC2)cn1	16.8 µM	19.3	14.4
